Data on 1 compound can be found in PMC6232958 (Molecular Biology of the Cell, 2018).

SMILES strings stand for the structures.

The assay relates to CRM1-mediated nuclear export of EYFP2-SV40NLS-NES reporter in HeLa cells. Description: Inhibition of reporter nuclear export by cotransfected RFP-NES or by LMB. The conditions noted are these: HeLa cells expressing EYFP2-SV40NLS-PKI NES treated with LMB (5 nM, 16-18 h). Format: cell-based.

For `CCC(=C/[C@H](C)C/C=C/C(C)=C/[C@@H](C)C(=O)[C@@H](C)[C@H](O)[C@@H](C)C/C(C)=C/C(=O)O)/C=C/[C@@H]1OC(=O)C=C[C@@H]1C` [leptomycin B], the “decrease of nuclear export of PKI NES” value was 92%.
